SMILES strings stand for the structures.

The target of one assay is T1, soluble guanylate cyclase (sGC) (Bos taurus, UniProt P16068).
T1 construct: The sGC which was employed had been isolated from bovine lung; from tissue; host or cells: bovine lung
T1 sequence (P16068 1-619): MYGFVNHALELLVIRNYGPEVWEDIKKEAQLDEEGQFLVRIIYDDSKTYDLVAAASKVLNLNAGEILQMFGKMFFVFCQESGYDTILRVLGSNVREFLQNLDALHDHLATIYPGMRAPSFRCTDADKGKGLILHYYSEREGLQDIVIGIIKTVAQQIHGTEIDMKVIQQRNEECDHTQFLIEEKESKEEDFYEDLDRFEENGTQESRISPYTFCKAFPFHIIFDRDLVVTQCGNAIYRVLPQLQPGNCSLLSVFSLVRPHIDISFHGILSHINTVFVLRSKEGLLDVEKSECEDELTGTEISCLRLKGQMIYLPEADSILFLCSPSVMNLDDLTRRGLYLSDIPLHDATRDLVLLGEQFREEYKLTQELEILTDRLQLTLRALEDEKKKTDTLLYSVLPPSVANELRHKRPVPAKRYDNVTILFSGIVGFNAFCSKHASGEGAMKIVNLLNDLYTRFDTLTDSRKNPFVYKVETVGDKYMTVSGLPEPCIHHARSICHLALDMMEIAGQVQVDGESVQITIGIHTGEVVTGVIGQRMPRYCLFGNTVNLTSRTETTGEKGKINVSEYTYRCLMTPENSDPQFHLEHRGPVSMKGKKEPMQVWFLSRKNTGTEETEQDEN
T1 sequence (P19687 1-691 partner): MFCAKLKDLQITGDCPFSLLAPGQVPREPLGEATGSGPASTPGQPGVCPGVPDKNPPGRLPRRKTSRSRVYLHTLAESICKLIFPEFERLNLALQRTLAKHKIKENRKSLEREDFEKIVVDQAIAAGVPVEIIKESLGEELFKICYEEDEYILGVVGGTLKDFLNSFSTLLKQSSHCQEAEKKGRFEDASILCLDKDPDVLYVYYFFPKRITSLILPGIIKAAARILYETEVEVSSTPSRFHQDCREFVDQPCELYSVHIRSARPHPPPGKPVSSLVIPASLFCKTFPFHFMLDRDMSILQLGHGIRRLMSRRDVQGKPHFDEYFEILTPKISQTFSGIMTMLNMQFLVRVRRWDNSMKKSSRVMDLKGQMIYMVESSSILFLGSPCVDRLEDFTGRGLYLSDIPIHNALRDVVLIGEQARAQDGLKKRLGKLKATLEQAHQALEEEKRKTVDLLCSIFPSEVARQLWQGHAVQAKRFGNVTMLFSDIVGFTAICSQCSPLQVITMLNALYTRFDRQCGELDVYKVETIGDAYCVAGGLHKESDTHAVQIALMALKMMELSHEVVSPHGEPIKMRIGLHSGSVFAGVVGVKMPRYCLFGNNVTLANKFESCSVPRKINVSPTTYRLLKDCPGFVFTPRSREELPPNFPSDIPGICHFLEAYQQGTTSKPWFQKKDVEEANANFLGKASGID
The assay can be described thus: Activation of the soluble guanylate cyclase (cGMP enzyme immunoassay). Type of assay: biochemical, bovine. To be noted: concentration c 5 μM; n-fold stimulation of basal enzyme activity. The method, then: The activation of the soluble guanylate cyclase (sGC) which catalyzes the conversion of guanosine triphosphate (GTP) into cyclic guanosine monophosphate (cGMP) and pyrophosphate, by the compounds according to the invention was quantified with the aid of an enzyme immunoassay (EIA) from Amersham. For this purpose the substances to be tested were initially incubated with sGC in microtiter plates, and the amount of the cGMP formed was then determined.
The sGC which was employed had been isolated from bovine lung (see Methods in Enzymology, Volume 195, p. 377). The test solutions (100 μl per well) contained 50 mM triethanolamine (TEA) buffer (pH 7.5), 3 mM MgCl2, 3 mM reduced glutathione (GSH), 0.1 mM GTP, 1 mM 3-isobutyl-1-methylxanthine (IBMX), suitably diluted enzyme solution and the substance to be tested or, in the control experiments, the solvent. The substances to be tested were dissolved in dimethyl sulfoxide (DMSO) and the solution was diluted with DMSO/water, so that the final concentration (c) of the substance to be tested in the test solution had the value indicated in the table. The DMSO concentration in the test solution was 5% (v/v). The reaction was initiated by addition of the sGC. The reaction mixture was incubated at 37° C. for 15 to 20 minutes and then stopped by ice-cooling and addition of the stop reagent (50 mM EDTA, pH 8.0). An aliquot of 50 μl was taken and used for determining the cGMP content using the acetylation protocol of the Amersham cGMP-EIA kit. The absorption of the samples was measured at 450 nm (reference wavelength 620 nm) in a microtiter plate reader. The cGMP concentration was determined using a standard curve which was obtained under the same test conditions. The activation of sGC by a test substance is given as the n-fold stimulation of the basal enzyme activity which was found in the control experiments (using solvent instead of test substance) (calculated using the formula n-fold stimulation=[cGMP]test substance/[cGMP]control).
With `Cc1cc(NC(=O)c2cc(Cl)ccc2NS(=O)(=O)c2ccc(Cl)cc2)ccc1S(=O)(=O)N1CC(C)CC(C)C1` (stereo not drawn) [Example 194, 5-Chloro-2-(4-chloro-phenylsulfonylamino)-N-(4-(3,5-dimethyl-piperidine-1-sulfonyl)-3-methyl-phenyl)-benzamide], the n-fold stimulation came to 20.0.

The same assay, now with this note: concentration c 10 μM; n-fold stimulation of basal enzyme activity.
`COc1cc(NS(=O)(=O)c2ccc(Cl)s2)c(C(=O)Nc2ccc(S(=O)(=O)N(C)Cc3cccnc3)cc2)cc1OC.Cl` [Example 191, 4,5-Dimethoxy-2-(5-chloro-thiophene-2-sulfonylamino)-N-(4-(N-methyl-N-(pyridin-3-yl-methyl)=aminosulfonyl)-phenyl)-benzamide hydrochloride]: the n-fold stimulation is listed as 27.5.

As to `Cc1cc(NC(=O)c2cc(Cl)ccc2NS(=O)(=O)c2ccc(Cl)cc2)ccc1S(=O)(=O)N1CCOCC1` [Example 192, 5-Chloro-2-(4-chloro-phenylsulfonylamino)-N-(4-(morpholine-4-sulfonyl)-3-methyl-phenyl)-benzamide], the n-fold stimulation is 26.7.

Compound `Cc1cc(NC(=O)c2cc(Cl)ccc2NS(=O)(=O)c2ccc(Cl)cc2)ccc1S(=O)(=O)N1C[C@@H](C)O[C@@H](C)C1` [Example 193, 5-Chloro-2-(4-chloro-phenylsulfonylamino)-N-(4-(cis-2,6-dimethyl-morpholine-4-sulfonyl)-3-methyl-phenyl)-benzamide] gave a n-fold stimulation of 31.1.

`Cc1cc(NC(=O)c2cc(Cl)ccc2NS(=O)(=O)c2ccc(Cl)cc2)ccc1S(=O)(=O)N1CCCCC1` [Example 195, 5-Chloro-2-(4-chloro-phenylsulfonylamino)-N-(4-(piperidine-1-sulfonyl)-3-methyl-phenyl)-benzamide] returned a n-fold stimulation of 16.2.

The assay is the same for the next values; noted with them: concentration c 50 μM; n-fold stimulation of basal enzyme activity.
As to `Cc1nn(C)c(Cl)c1S(=O)(=O)Nc1ccc(Cl)cc1C(=O)Nc1ccc(S(=O)(=O)N2CCOCC2)cc1` [Example 130, 5-Chloro-2-(5-chloro-1,3-dimethyl-pyrazole-4-sulfonyl-amino)-N-(4-(morpholine-4-sulfonyl)-phenyl)-benzamide], the n-fold stimulation came to 35.3.

In turn, `O=C(Nc1ccc(S(=O)(=O)N2CCOCC2)cc1)c1cc(Cl)ccc1NS(=O)(=O)c1cccnc1` [Example 132, 5-Chloro-N-(4-(morpholine-4-sulfonyl)-phenyl)-2-(pyridine-3-sulfonylamino)-benzamide] displayed a n-fold stimulation of 9.9.

For `CCS(=O)(=O)Nc1ccc(Cl)cc1C(=O)Nc1ccc(S(=O)(=O)N2CCOCC2)cc1` [Example 134, 5-Chloro-2-(ethylsulfonylamino)-N-(4-(morpholine-4-sulfonyl)-phenyl)-benzamide], the n-fold stimulation came to 7.2.

`O=C(Nc1ccc(S(=O)(=O)N2CCOCC2)cc1)c1cc(Cl)ccc1NS(=O)(=O)c1cccs1` [Example 136, 5-Chloro-N-(4-(morpholine-4-sulfonyl)-phenyl)-2-(thiophene-2-sulfonylamino)-benzamide] showed a n-fold stimulation of 24.2.

Regarding `O=C(Nc1ccc(S(=O)(=O)N2CCOCC2)cc1)c1cc(Cl)ccc1NS(=O)(=O)c1ccc(C(F)(F)F)cc1` [Example 137, 5-Chtoro-N-(4-(morpholine-4-sulfonyl)-phenyl)-2-(4-trifluoromethyl-phenylsulfonylamino)-benzamide], the n-fold stimulation was determined as 4.6.

In turn, `O=C(Nc1ccc(S(=O)(=O)N2CCOCC2)cc1)c1cc(Cl)ccc1NS(=O)(=O)c1cc(C(F)(F)F)cc(C(F)(F)F)c1` [Example 139, 2-(3,5-Bis-trifluoromethyl-phenylsulfonylamino)-5-chloro-N-(4-(morpholine-4-sulfonyl)-phenyl)-benzamide] returned a n-fold stimulation of 21.9.

As for `O=C(Nc1ccc(S(=O)(=O)N2CCOCC2)cc1)c1cc(Cl)ccc1NS(=O)(=O)c1cc(Br)c(Br)s1` [Example 145, 5-Chloro-2-(4,5-dibromo-thiophene-2-sulfonylamino)-N-(4-(morpholine-4-sulfonyl)-phenyl)-benzamide], the n-fold stimulation is 8.

`O=C(Nc1ccc(S(=O)(=O)N2CCOCC2)cc1)c1cc(Cl)ccc1NS(=O)(=O)c1ccc(F)cc1` [Example 146, 5-Chloro-2-(4-fluoro-phenylsulfonylamino)-N-(4-(morpholine-4-sulfonyl)-phenyl)-benzamide] had a n-fold stimulation of 10.2.

With `COc1ccc(S(=O)(=O)Nc2ccc(Cl)cc2C(=O)Nc2ccc(S(=O)(=O)N3CCOCC3)cc2)cc1Cl` [Example 148, 5-Chloro-2-(3-chloro-4-methoxy-phenylsulfonylamino)-N-(4-(morpholine-4-sulfonyl)-phenyl)-benzamide], the n-fold stimulation was found to be 15.5.

As for `Cc1cc(C)c(S(=O)(=O)Nc2ccc(Cl)cc2C(=O)Nc2ccc(S(=O)(=O)N3CCOCC3)cc2)c(C)c1` [Example 150, 5-Chloro-N-(4-(morpholine-4-sulfonyl)-phenyl)-2-(2,4,6-trimethyl-phenylsulfonylamino)-benzamide], the n-fold stimulation worked out at 15.3.

Turning to `O=C(Nc1ccc(S(=O)(=O)N2CCOCC2)cc1)c1cc(Cl)ccc1NS(=O)(=O)c1cccc([N+](=O)[O-])c1` [Example 151, 5-Chloro-N-(4-(morpholine-4-sulfonyl)-phenyl)-2-(3-nitro-phenylsulfonylamino)-benzamide], the n-fold stimulation turned out to be 19.9.

With `O=C(Nc1ccc(S(=O)(=O)N2CCOCC2)cc1)c1cc(Cl)ccc1NS(=O)(=O)CC(F)(F)F` [Example 155, 5-Chloro-N-(4-(morpholine-4-sulfonyl)-phenyl)-2-(2,2,2-trifluoro-ethylsulfonylamino)-benzamide], the n-fold stimulation was 7.8.

For the compound `CCCCS(=O)(=O)Nc1ccc(Cl)cc1C(=O)Nc1ccc(S(=O)(=O)N2CCOCC2)cc1` [Example 156, 2-(Butyl-sulfonylamino)-5-chloro-N-(4-(morpholine-4-sulfonyl)-phenyl)-benzamide], the n-fold stimulation was determined as 7.8.

On to `O=C(Nc1ccc(S(=O)(=O)N2CCOCC2)cc1)c1cc(Cl)ccc1NS(=O)(=O)c1cccc(C(F)(F)F)c1` [Example 157, 5-Chloro-N-(4-(morpholine-4-sulfonyl)-phenyl)-2-(3-trifluoromethyl-phenylsulfonylamino)-benzamide], for which the n-fold stimulation was 4.6.

The compound `COc1cc(NS(=O)(=O)c2ccc(Cl)cc2)c(C(=O)Nc2ccc(S(=O)(=O)N3CCS(=O)(=O)CC3)cc2)cc1OC` [Example 175, 2-(4-Chloro-phenylsulfonylamino)-4,5-dimethoxy-N-(4-(1,1-dioxo-thiomorpholine-4-sulfonyl)-phenyl)-benzamide] yielded a n-fold stimulation of 21.1.

The compound `COc1cc(NS(=O)(=O)c2ccc(Cl)cc2)c(C(=O)Nc2ccc(S(=O)(=O)N3CC[S+]([O-])CC3)cc2)cc1OC` [Example 176, 2-(4-Chloro-phenylsulfonylamino)-4,5-dimethoxy-N-(4-(1-oxo-thiomorpholine-4-sulfonyl)-phenyl)-benzamide] yielded a n-fold stimulation of 13.9.

Source of the values: patent US8541410B2, “Sulfur substituted sulfonylaminocarboxylic acid N-arylamides, their preparation, their use and pharmaceutical preparations comprising them” (Sanofi-aventis Deutschland GmbH, priority 1998, dated 2013).
